Source: PubChem BioAssay (NCI)
“And” between values parts separate entries of the source, which are not always exact repeats. Equal values may be shown once.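 Protocol summary: plate cells (96-well), add compound at 5 concentrations, incubate 48 h, interpolate endpoints linearly. GI50 = concentration required for 50% inhibition of growth. TGI is the concentration that stops growth completely.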

How the values were obtained:
Experiment in all cases: NCI tumour cell line growth inhibition, 48 h
A498 renal = system: A498 renal
BT-549 breast = system: BT-549 breast
HCC-2998 colon = system: HCC-2998 colon
MALME-3M melanoma = system: MALME-3M melanoma
MCF7 breast = system: MCF7 breast
SF-539 CNS = system: SF-539 CNS
SK-MEL-5 melanoma = system: SK-MEL-5 melanoma
SK-OV-3 ovarian = system: SK-OV-3 ovarian
SNB-75 CNS = system: SNB-75 CNS
HOP-92 NSCLC = system: HOP-92 NSCLC

SMILES | GI50 (A498 renal) | TGI (A498 renal) | GI50 (BT-549 breast) | TGI (BT-549 breast) | GI50 (HCC-2998 colon) | TGI (HCC-2998 colon) [µM] | GI50 (MALME-3M melanoma) | TGI (MALME-3M melanoma) | GI50 (MCF7 breast) | TGI (MCF7 breast) [µM] | GI50 (SF-539 CNS) [µM] | TGI (SF-539 CNS) [µM] | GI50 (SK-MEL-5 melanoma) | TGI (SK-MEL-5 melanoma) | GI50 (SK-OV-3 ovarian) | TGI (SK-OV-3 ovarian) [µM] | GI50 (SNB-75 CNS) [µM] | TGI (SNB-75 CNS) [µM] | TGI (HOP-92 NSCLC) | GI50 (HOP-92 NSCLC)
CCOC(=O)CC1C(CNC(=O)NC)OC(n2cnc3c(NC(=O)Nc4ccccc4)ncnc32)C1O[Si](C)(C)C(C)(C)C (configuration not stated) | 3.35 µM | 17.1 µM | > 100 µM | > 100 µM | > 100 µM | > 100 | 10.3 µM | > 100 µM | 3.42 µM | 45.1 | 5.19 | > 100 | 4.34 µM | > 100 µM | 21 µM | > 100 | 4.56 | > 100 | – | –
C#CCn1c2c(c3ccccc3c1=O)C(=O)c1ccccc1-2 | – | 82.9 µM | – | > 100 µM | – | – | – | > 100 µM | – | 27.7 | – | 24.2 | – | 22.1 µM | – | 73.1 | – | 27.4 | > 100 µM | –
CCN1C(=O)N[C@H]2[C@@H]3NC(=O)c4ccc(Cl)n4[C@@H]3C[C@]21O | 1.82 µM | 6.16 µM | 0.41 µM | 4.29 µM | 0.607 µM | 4.79 | 0.653 µM | 4.66 µM | 0.242 µM | 1.5 | 0.369 | 2.57 | 0.228 µM | 0.711 µM | 2.07 µM | 7.56 | 0.663 | 7.63 | 7.69 µM | 1.04 µM
COc1ccc2c(ccc3oc([N+](=O)[O-])cc32)c1 | 0.0852 µM | 0.305 µM | 0.187 µM | 0.521 µM | 0.177 µM | 0.418 | 0.137 µM | 0.314 µM | 0.176 µM | 3 | 0.225 | 0.595 | 0.0413 µM | 0.142 µM | 0.231 µM | 1.84 | 0.201 | 0.573 | 0.407 µM | 0.129 µM
Clc1ccc2c(NCCNc3nc(N4CCCCC4)nc4ccccc34)ccnc2c1 | 10.2 µM | 22.1 µM | 2.01 µM | 4.68 µM | 2.22 µM | 6.26 | 2.05 µM | 4.05 µM | 0.748 µM | 12.6 | 1.72 | 3.42 | 1.86 µM | 3.31 µM | 2.58 µM | 7.64 | 1.78 | 7.46 | 3.24 µM | 1.62 µM
COc1ccc2c3c1OC1C4(CCC5C(C2)N(CC2CC2)CCC351)OCCO4 (configuration not stated) | – | – | – | > 100 µM | – | > 100 | – | > 100 µM | – | > 100 | – | – | – | > 100 µM | – | > 100 | – | > 100 | > 100 µM | –
CC[C@H](C)C(=O)O[C@H]1C[C@@H](C)C=C2C=C[C@H](C)[C@H](CC[C@@H]3C[C@@H](O)CC(=O)O3)[C@H]21 | 0.283 µM and 0.162 µM | 2.2 µM and 1.1 µM and 2.82 µM | 11.3 µM and 8.48 µM | > 100 µM and 25.2 µM | 26.3 µM and 25.1 µM | > 100 | 14.1 µM and 15.2 µM | > 100 µM and 31.6 µM and > 30 µM | 32.1 µM and 14.9 µM | > 100 | – | – | 10.7 µM and 2.97 µM | > 100 µM and 10.7 µM and 16.1 µM | 7.58 µM and 6.68 µM | > 100 | – | – | 0.649 µM and 0.657 µM and 0.141 µM | 0.172 µM and 0.102 µM
Cc1ccc(Nn2c(SCC(=O)Nc3nc(-c4ccccc4)cs3)nc(C)c2C)cc1 | 17.4 µM | > 100 µM | 3.18 µM | 14.1 µM | – | – | 2.48 µM | 13.6 µM | – | – | 4.68 | 35.2 | 2 µM | 5.72 µM | 10.6 µM | > 100 | 2.81 | > 100 | – | –
O=C1c2ccccc2-c2c1c1ccc3ccccc3c1n2-c1ccccc1 | – | – | 44.7 µM | > 100 µM | 30.5 µM | 94.4 | 28.1 µM | 66.2 µM | 15.6 µM | > 100 | 18.2 | 36.3 | 16.5 µM | 50.1 µM | 26.2 µM | 54.1 | 81.2 | > 100 | 52.1 µM | 16 µM
N#Cc1cc2c(=S)[nH]c(=S)[nH]c2nc1SCc1ccccc1 | 39.9 µM | > 100 µM | 47.2 µM | > 100 µM | 24.6 µM | 79 | – | – | 50.6 µM | > 100 | 57.1 | > 100 | 20.7 µM | 52.3 µM | > 100 µM | > 100 | – | – | > 100 µM | 30.1 µM
CCC1C[N+]2=C(c3cc(OC)c(OC)cc3CC2)c2c1cc1n2CCc2cc(OC)c(OC)cc2-1 (configuration not stated) | 7.36 µM | 33 µM | 2.69 µM | 13.5 µM | 2.55 µM | 12.9 | – | – | 1.25 µM | 13.3 | 3.34 | 14.9 | 1.26 µM | 2.61 µM | 5.01 µM | 37.5 | 1.77 | 7.48 | 6.08 µM | 1.78 µM
CCSc1nnc(-c2ccc3ccccc3c2O)n1-c1ccccc1 | – | – | > 100 µM | > 100 µM | > 100 µM | > 100 | 69.7 µM | > 100 µM | – | – | > 100 | > 100 | – | – | > 100 µM | > 100 | 71 | > 100 | 92.1 µM | 5 µM
COc1ccc2cn3c4ccc(O)cc4[nH]c(=O)c3c2c1 | 0.404 µM | 17 µM | 3.34 µM | 18.1 µM | 0.301 µM | 6.75 | – | – | 0.236 µM | 14.6 | 0.104 | 12.5 | 0.0257 µM | 3.45 µM | 0.0889 µM | 13.9 | 0.162 | 18.5 | 25.8 µM | 11.6 µM
Cc1nc2sc(C(=O)Nc3cccc(Cl)c3C)c(N)c2cc1C(O)c1ccccc1 (configuration not stated) | 0.0158 µM | 0.059 µM | 0.124 µM | 3 µM | 0.106 µM | 2.36 | 0.0536 µM | 18.5 µM | 0.0332 µM | 11.3 | 0.0253 | 0.0805 | 0.0528 µM | 1.11 µM | 0.0697 µM | 33.4 | – | – | 14.2 µM | 2.31 µM
